The text below walks through data of patent US20050069544A1, “Pharmaceutical composition and a method of treatment” (priority 1998, published 2005).

Entries after “also recorded” stand apart in the source; their conditions may differ.

The subject of one assay is PBMC from RhD-alloimmunised donors. The assay can be described thus: celELISA of cytokine production (IL-10, TGF-β1) by PBMC from RhD alloimmunised donors. Type of assay: cell-based, human. As to conditions: FIG. 3 and FIG. 10. As for the experimental part:
Cultured T-cells are stimulated with each of the epitopes given in Table 1 and after 5 days the responding cells were transferred to flat-bottomed microtitre plates (96-well Nunc-Immuno Maxisorp) coated with […] per well of monoclonal anti-cytokine capture antibody diluted in 0.05M alkaline carbonate coating buffer pH 9.6. Unbound capture antibody was removed by two washes with HBSS and non-specific binding potential blocked by incubation with 200 μl per well of phosphate buffered saline, pH 7.4 (PBS containing 3% BSA).
Five days after stimulation, lymphocyte cultures were mixed to resuspend the cells and duplicate 100 μl aliquots were transferred into wells coated with the respective capture antibody specific for IFN-γ, IL-10 or TGF-β. The plates coated with capture antibodies and layered by lymphocytes were then incubated for a further 24 hours at 37° C. in a humidified atmosphere of 5% CO2 and 95% air. After this incubation the PBMC were removed by four washes with 0.2% Tween/PBS. One hundred microlitre aliquots of the appropriate biotinylated monoclonal detection antibody in 0.2% BSA/PBS were then added to the wells and incubated at room temperature for 45 minutes.
After six washes with 0.5% Tween/PBS, 100 μl of 1:100,000 ExtrAvidin-alkaline phosphatase conjugate (Sigma) was then added to each of the wells and incubated at room temperature for 30 minutes. The ExtrAvidin conjugate was removed by eight washes with 0.2% Tween/PBS, and the plates developed using 100 μl per well of p-nitrophenyl phosphate (Sigma) 1.0 mg/ml in 0.05M carbonate alkaline buffer pH9.6. The absorbance at 405 nm was then measured using a Multiscan plate reader (Labsystems Basingstoke UK).
Cytokine secretion was measured by interpolation from a standard curve generated by incubating duplicate wells with doubling dilutions of recombinant human IFN-γ or IL-10 or TGF-β (Pharmingen). The standard curves were modelled by a smoothed cubic spline function applied to the absorbance reading and the cytokine concentrations after a quasilogarithmic transformation, where: quasiloge(z)=loge[z+{square root}[z^2+1]).
Using celELISA technique, the 68 RhD peptide panel was screened for the ability to induce IL-10 and TGF-β production for PBMC from a total of 19 samples from 12 different alloimmune donors. PMBC from 10 out of the 12 RhD-alloimmunised donors could produce IL-10 to at least one of the RhD peptides on at least one occasion, with a total of 194 significant IL-10 responses to the RhD peptides between all the donors. The RhD peptides that induced significant TGF-β or IL-10 and proliferative responses from PBMC in all the samples screened are summarised in FIGS. 10 and 11.
For “FSLLGLLGEIIYIVL (Residue 332-346 RhD; listed as Homo sapiens) [compound 56]”, the “IL-10 production by PBMC” value is listed as “commonly induce the production of IL-10”.
The same measure, in the same setting: as for “LGLVAGLISVGGAKY (Residue 297-311 RhD; listed as Homo sapiens) [compound 49]”, the entry is “commonly induce the production of IL-10; also recorded: induce IL-10 production in the absence of a proliferative response or the production of IFN-γ or IL-4”.

Staying with this assay, now noted: FIG. 3 and FIG. 11.
For the sequence “LGFLTSSFRRHSWSS (Residue 62-76 RhD; listed as Homo sapiens) [compound 8]”, the “TGF-β1 production by PBMC” value is reported as “commonly induce the production of TGF-β1”.
On the same count and under the same terms, the same measure for “WLAMVLGLVAGLISV (Residue 292-306 RhD; listed as Homo sapiens) [peptide 48]”: “commonly induce the production of TGF-β1; also recorded: induces TGF-β1 production in the absence of a proliferative response or the production of IFN-γ or IL-4”.

The next assay relates to PBMC from RhD alloimmunised donors. The assay can be described thus: Cell proliferation assay (3H-thymidine) of PBMC from RhD alloimmunised donors stimulated with RhD peptides. The assay is classed as cell-based, human. As to conditions: peptide 20 μg/ml, 5 days. On the procedure:
Five complete panels of 68 15-mer peptides, with 5 or 10 amino acid overlaps, were synthesized (Multiple Peptide Service, Cambridge Research Biochemicals, Cheshire, UK and Dept. Of Biochemistry, University of Bristol, UK), corresponding to the sequences of the 30 kD Rh proteins associated with expression of the RhD or RhcE/ce/Ce/CE blood group antigens respectively (Tables 1 to 5). An additional three peptide sequences is added to the panel of RhD peptides to account for the Ile to Met substitution described earlier (numbered from 69 to 71). The amino acid sequences for each of these proteins were deduced from cDNA analyses (FIG. 1). In order to ensure purity, each panel was synthesized by fluorenylmethoxycarbonyl chemistry on resin using a base-labile linker, rather than by conventional pin technology, and randomly selected peptides were screened for purity by HPLC and amino acid analysis.
Peripheral blood mononuclear cells (PBMC) from donors or patients were separated from fresh blood samples using Ficoll-Hypaque. The donors and patients had become alloimmunised with RhD-positive blood either through pregnancy, a blood transfusion or through immunization with the relevant blood.
(§1) PBMC were cultured in 100 μl volumes in microtitre plates at a concentration of 1.25×10^6 cells/ml in an Alpha Modification of Eagle's Medium (ICN Flow, Bucks UK) supplemented with 5% autologous serum, 4 mM L-Glutamine (Gibco, Paisley, UK), 100 U/ml sodium benzylpenicillin G (Sigma), 100 μg/ml streptomycin sulphate (Sigma), 5×10^−5M 2-mercaptoethanol (Sigma) and 20 mM HEPES pH7,2 (Sigma). All plates were incubated at 37° C. in a humidified atmosphere of 5% CO2/95% air. The cell proliferation in cultures was estimated from the incorporation of ^3H-Thymidine in triplicate wells 5 days after stimulation with antigen as described previously. Proliferation results are presented either as the mean CPM+/−SD of the triplicate samples, or as a stimulation index (SI), expressing the ratio of mean CPM in stimulated versus unstimulated control cultures. An S1>3 with CPM>1000 is interpreted as representing a positive response.
Regarding “CLPLWALTLEAALIL (Residues 12-26 RhD; listed as Homo sapiens) [peptide 2]”, the “proliferative T-cell response to RhD peptides” value is “most commonly targeted”.
Consider “FSLLGLLGEIIYIVL (Residue 332-346 RhD; listed as Homo sapiens) [compound 56]”, for which the “proliferative T-cell response to RhD peptides” value is “most commonly targeted”.
Take “HSWSSVAFNLFMLAL (Residue 72-86 RhD; listed as Homo sapiens) [compound 10]”: the “proliferative T-cell response to RhD peptides” value is reported as “most commonly targeted”.
Still for that read-out and setting: the same measure for “LLTGLLLNLKIWKAP (Residue 382-396 RhD; listed as Homo sapiens) [compound 63]”: “most commonly targeted”.
Same read-out and setting: as for “SAVLAGGVAVGTSCH (Residue 272-286 RhD; listed as Homo sapiens) [peptide 46]”, the entry is “most commonly targeted”; as for “VTALGNLRMVISNIF (Residue 147 - 161 RhD; listed as Homo sapiens) [compound 22]”, “most commonly targeted”.

For a further assay, the system named is T-cells from AIHA patients. The assay can be described thus: Cell proliferation assay of PBMC/T-cells from autoimmune haemolytic anaemia patients. The assay is classed as cell-based, human. The note with it: AIHA patients; FIG. 17A. On the procedure:
as §1
The experiments mentioned in Example 1.1 were repeated using blood from subjects suffering from autoimmune haemolytic anaemia.
These experiments can be carried out using other rhesus proteins, such as RhcE, Rhce, RhCe or RhCE protein. T-cells from RhD-negative subjects suffering AIHA were tested with the panel of ce peptides (Table 3).
Turning to “AALILLFYFFTHYDA (Residue 22- 36 RhD; listed as Homo sapiens) [compound 3]”, the “proliferative T-cell response to RhD peptides” value was “exhibited a proliferative response”.
On the same count and under the same terms, the same measure for “ATIPSLSAMLGALFL (Residue 202-216 RhD; listed as Homo sapiens) [compound 33]”: “exhibited a proliferative response”; for “CLPLWALTLEAALIL (Residues 12-26 RhD; listed as Homo sapiens) [peptide 2]”: “exhibited a proliferative response”; for “GKVNLAQLVVMVLVE (Residue 132-146 RhD; listed as Homo sapiens) [compound 20]”: “exhibited a proliferative response”.
The same measure, in the same setting: the same measure for “GLISVGGAKYLPGCC (Residue 302-316 RhD; listed as Homo sapiens) [compound 50]”: “exhibited a proliferative response”; for “GTSCHLIPSPWLAMV (Residue 282-296 RhD; listed as Homo sapiens) [compound 47]”: “exhibited a proliferative response”; for “LAIVIALTSGLLTGL (Residue 372-386 RhD; listed as Homo sapiens) [compound 62]”: “exhibited a proliferative response”.

The assay is the same for the next values; noted with them: RhD-negative AIHA subjects; FIG. 17B.
For the sequence “FSLLGLLGEITYIVL (Residue 332-346 Rhce; listed as Homo sapiens) [compound 195]”, the “proliferative T-cell response to ce peptides” value is “exhibited a proliferative response”.
Take “GTSCHLIPSPWLAMV (Residue 282-296 Rhce; listed as Homo sapiens) [compound 186]”: the “proliferative T-cell response to ce peptides” value is recorded as “exhibited a proliferative response”.
On to “KGLVASYQVGQDLTV (Residue 42-56 Rhce; listed as Homo sapiens) [compound 144]”, for which the “proliferative T-cell response to ce peptides” value is recorded as “exhibited a proliferative response”.
Same read-out and setting: as for “THYDASLEDQKGLVA (Residues 32-46 Rhce; listed as Homo sapiens) [compound 143]”, the entry is “exhibited a proliferative response”.
Turning to “TVAWCLPKPLPKGTE (Residue 182-196 Rhce; listed as Homo sapiens) [compound 168]”, the “proliferative T-cell response to ce peptides” value is “exhibited a proliferative response”.
